From ChEMBL document CHEMBL1154232, “Cerebrosides of the halotolerant fungus Alternaria raphani isolated from a sea salt field” (J Nat Prod, 2009)
In brackets after ≈: the same amount, converted by molar mass.

Legend:
[1] = tested on: HL-60; assay: Cytotoxicity against human HL60 cells after 24 hrs by SRB assay; format: functional, cell-based; conditions: HL-60, 24 h
[2] = tested on: Candida albicans; assay: Antifungal activity against Candida albicans after 24 hrs by agar dilution method; format: functional
[3] = tested on: P388; assay: Cytotoxicity against mouse P388 cells after 24 hrs by SRB assay; format: functional, cell-based; conditions: P388, 24 h
[4] = tested on: Escherichia coli; assay: Antibacterial activity against Escherichia coli after 24 hrs by agar dilution method; format: functional
[5] = tested on: A549; assay: Cytotoxicity against human A549 cells after 72 hrs by MTT assay; format: functional, cell-based; conditions: A549, 72 h
[6] = tested on: Radical scavenging activity; assay: Antioxidant activity assessed as DPPH free radical scavenging activity after 30 mins; format: functional
[7] = tested on: Bel-7402; assay: Cytotoxicity against human Bel7402 cells after 72 hrs by MTT assay; format: functional, cell-based; conditions: Bel-7402, 72 h
[8] = tested on: Bacillus subtilis; assay: Antibacterial activity against Bacillus subtilis after 24 hrs by agar dilution method; format: functional

SMILES | IC50 [1] [µM] | MIC [2] [µM] | IC50 [3] [µM] | MIC [4] [µM] | IC50 [5] [µM] | IC50 [6] [µM] | IC50 [7] [µM] | MIC [8] [µM]
C=C(CCCCCCCCC)C(=O)CC/C=C/[C@@H](O)[C@H](CO[C@@H]1O[C@H](CO)[C@@H](O)[C@H](O)[C@H]1O)NC(=O)[C@H](O)/C=C/CCCCCCCCCCCCCC [ALTERNAROSIDE A] | > 100 | 260 (≈ 200 µg/mL) | > 100 | 130 (≈ 99.9 µg/mL) | > 100 | > 500 | > 100 | 130 (≈ 99.9 µg/mL)
CCCCCCCCCCCCCC/C=C/[C@@H](O)C(=O)N[C@@H](CO[C@@H]1O[C@H](CO)[C@@H](O)[C@H](O)[C@H]1O)[C@H](O)/C=C/CC/C=C(\C)CCCCCCCC [ALTERNAROSIDE B] | > 100 | 270 (≈ 200 µg/mL) | > 100 | 135 (≈ 99.9 µg/mL) | > 100 | > 500 | > 100 | 68 (≈ 50.3 µg/mL)
CCCCCCCCC/C=C\CC/C=C/[C@@H](O)[C@H](CO[C@@H]1O[C@H](CO)[C@@H](O)[C@H](O)[C@H]1O)NC(=O)[C@H](O)/C=C/CCCCCCCCCCCCCC [ALTERNAROSIDE C] | > 100 | 270 (≈ 200 µg/mL) | > 100 | 135 (≈ 99.9 µg/mL) | > 100 | > 500 | > 100 | 135 (≈ 99.9 µg/mL)
O=C1O[C@H]([C@@H](O)CO)C(O)=C1O [ASCORBIC ACID] | – | – | – | – | – | 22 | – | –
O=C(O)c1cn(C2CC2)c2cc(N3CCNCC3)c(F)cc2c1=O [CIPROFLOXACIN LACTATE] | – | – | – | – | – | – | – | 7.42
COc1cc([C@@H]2c3cc4c(cc3[C@@H](O[C@@H]3O[C@@H]5CO[C@@H](C)O[C@H]5[C@H](O)[C@H]3O)[C@H]3COC(=O)[C@H]23)OCO4)cc(OC)c1O [ETOPOSIDE] | 0.042 | – | 0.05 | – | 0.63 | – | 1.03 | –
OC(Cn1cncn1)(Cn1cncn1)c1ccc(F)cc1F [FLUCONAZOLE] | – | 5.1 (≈ 1.56 µg/mL) | – | – | – | – | – | –
